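Five concentrations, 48 hours, 96-well plates. GI50 is the concentration that inhibits growth by half. Definition used: TGI = concentration required for complete inhibition of growth.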
What was measured:
Test in all cases: inhibition of tumour cell growth, NCI panel, 48 h
[1] = tested on: ACHN renal
[2] = tested on: LOX IMVI melanoma
[3] = tested on: RPMI-8226 leukemia
[4] = tested on: CCRF-CEM leukemia
[5] = tested on: IGROV1 ovarian
[6] = tested on: NCI-H226 lung
[7] = tested on: OVCAR-4 ovarian
[8] = tested on: SK-MEL-5 melanoma
[9] = tested on: OVCAR-3 ovarian
[10] = tested on: SF-539 CNS

Row | Compound | TGI [1] | TGI [2] | TGI [3] | TGI [4] | TGI [5] | TGI [6] | TGI [7] | TGI [8] | TGI [9] | GI50 [1] | GI50 [2] | GI50 [4] | GI50 [5] | GI50 [6] | GI50 [10] | TGI [10] | GI50 [7] | GI50 [8] | GI50 [9] | GI50 [3]
1 | CCOP(=O)(OCC)C(Cc1c[nH]c2ccccc12)C(=O)O (stereo unspecified) | > 100 µM | > 100 µM | > 100 µM | > 100 µM | > 100 µM | > 100 µM | > 100 µM | > 100 µM | > 100 µM | – | – | – | – | – | – | – | – | – | – | –
2 | Fc1ccc(C2CC(c3cccc(Nc4ccncc4)c3)=NN2c2ccccc2)cc1 (stereo unspecified) | 3.11 µM | 3.02 µM | – | 10.2 µM | 3.49 µM | 8.78 µM | 3.07 µM | 3.22 µM | 3.24 µM | 1.71 µM | 1.66 µM | 3.22 µM | 1.8 µM | 2.48 µM | 1.65 µM | 3.06 µM | 1.61 µM | 1.78 µM | 1.75 µM | –
3 | CC(O)C1(O)C(O)CC(OC2c3cc4c(c(O)c3[C@@H]3C[C@@]2(C)OC32C=c3cc[nH]c3=N2)C(=O)c2cccc(O)c2C4=O)OC1C (stereo partly specified) | 4.04 µM | 3.17 µM | 4.88 µM | 1.72 µM | 3.22 µM | 3.17 µM | 7.2 µM | 5.56 µM | 6.45 µM | – | – | – | – | – | – | 2.79 µM | – | – | – | –
4 | CC(C)=NC(C(=O)O)C(C)(C)S (stereo unspecified) | > 100 µM | > 100 µM | > 100 µM | > 100 µM | > 100 µM | > 100 µM | > 100 µM | – | > 100 µM | – | – | – | – | – | – | > 100 µM | – | – | – | –
5 | Cc1ccc(S(=O)(=O)NCCCSCCN)cc1 | > 100 µM | > 100 µM | – | > 100 µM | – | > 100 µM | > 100 µM | > 100 µM | > 100 µM | – | – | – | – | – | – | – | – | – | – | –
6 | C[n+]1c(-c2ccc(/C=N\Nc3ccnc(N/N=C/c4ccc(-c5cn6ccsc6[n+]5C)cc4)n3)cc2)cn2ccsc21 | > 100 µM | – | > 100 µM | 63.8 µM | 65.4 µM | 66.7 µM | > 100 µM | 35.4 µM | > 100 µM | – | – | – | – | – | – | 70.3 µM | – | – | – | –
7 | Nc1nc(N)c(N=Nc2ccccc2)c(=O)[nH]1 | 96.7 µM | > 100 µM | > 100 µM | > 100 µM | > 100 µM | > 100 µM | > 100 µM | > 100 µM | > 100 µM | – | – | – | – | – | – | > 100 µM | – | – | – | –
8 | OCC1NC(CO)C(O)C1O (stereo unspecified) | – | > 100 µM | > 100 µM | > 100 µM | > 100 µM | > 100 µM | > 100 µM | > 100 µM | > 100 µM | – | – | – | – | – | – | – | – | – | – | –
9 | Nc1ccc(C2(c3ccc(N)cc3)C3CC4CC(C3)CC2C4)cc1 | 32.7 µM | 39.7 µM | – | 25.3 µM | 24.1 µM | 45.1 µM | 32.5 µM | – | 25.1 µM | – | – | – | – | – | – | – | – | – | – | –
10 | CC(=O)OC/C=C\Cn1ncc(=O)[nH]c1=O | 43.8 µM | 13.3 µM | 31.4 µM | 50.4 µM | 42.5 µM | 36 µM | – | 26.7 µM | 69.3 µM | – | – | – | – | – | – | 35.7 µM | – | – | – | –
11 | O=C(N[C@H](CO)[C@H](O)c1ccc([N+](=O)[O-])cc1)C(Cl)Cl | > 100 µM | > 100 µM | > 100 µM | > 100 µM | > 100 µM | > 100 µM | > 100 µM | > 100 µM | > 100 µM | – | – | – | – | – | – | > 100 µM | – | – | – | –
12 | C=C(CN(C)C)C(=O)c1ccccc1 | 7.32 µM | 15.4 µM | > 66.3 µM | 3.17 µM | 36.3 µM | 36 µM | 39.3 µM | 28.8 µM | 9.9 µM | – | – | – | – | – | – | 27.1 µM | – | – | – | –
13 | COc1ccc(/C=C/c2cc(O)cc(OC3OC(CO)C(O)C(O)C3O)c2)cc1O (stereo unspecified) | > 100 µM | > 100 µM | > 100 µM | > 100 µM | > 100 µM | > 100 µM | > 100 µM | > 100 µM | > 100 µM | – | – | – | – | – | – | > 100 µM | – | – | – | –
14 | COc1ncnc2c(Cl)c(C(O)c3ccccc3)c(Cl)cc12 (stereo unspecified) | 97.2 µM | > 100 µM | 66.4 µM | – | > 100 µM | – | > 100 µM | > 100 µM | > 100 µM | – | – | – | – | – | – | 50.2 µM | – | – | – | –
15 | COc1ccc(CCn2ccc(C)n2)c(OC)c1 | > 100 µM | > 100 µM | – | > 100 µM | > 100 µM | – | > 100 µM | > 100 µM | > 100 µM | – | – | – | – | – | – | > 100 µM | – | – | – | –
16 | O=S1(=O)C[C@H](NCc2ccccc2)[C@H](NCc2ccccc2)C1 | > 100 µM | > 100 µM | 86.7 µM | > 100 µM | > 100 µM | > 100 µM | > 100 µM | > 100 µM | > 100 µM | – | – | – | – | – | – | > 100 µM | – | – | – | –
17 | CC(C)N(CCNc1nc(C(Cl)(Cl)Cl)nc2cc(Cl)ccc12)C(C)C | 2.66 µM | – | 3.18 µM | – | – | 3.57 µM | 2.96 µM | 2.93 µM | 3.66 µM | 1.29 µM | – | – | – | 1.68 µM | 1.82 µM | 3.38 µM | 1.35 µM | 1.56 µM | 1.68 µM | 1.19 µM

— PubChem BioAssay (NCI)
